Measurements from US12384777B2 (Tay Therapeutics Limited, priority 2019, dated 2025).
Where two headings read alike, the source gives them in different places.

What was measured:
[1] = Stability in human skin S9 fraction; type: in vitro ADME; settings: 0.3 mg/mL S9, NADPH, UDPGA, 0.5 μM compound; for half-life at 0.5 μM: human, human skin S9 fraction, pH 7.4, read-out: T1/2 (min) in human skin S9 fractions
Experimental: An incubation mixture was prepared containing 50 mM potassium phosphate buffer, pH 7.4), 0.3 mg/mL human skin S9 (Sekisui Xenotech), NADPH (final conc 0.8 mg/mL), UDPGA (final conc 0.16 mg/mL) and warmed to 37° C. for 5 min. The reaction was initiated upon addition of test compound (final concentration 0.5 μM). Immediately, at time zero, then at 3, 6, 15, 30, 60, 120 and 180 min, an aliquot (50 μL) of the incubation mixture was removed and mixed with acetonitrile (100 μL) to terminate the reaction. Internal standard was added to all samples, the samples centrifuged to sediment precipitated protein and the plates then sealed prior to UPLC-MS/MS analysis using a Quattro Premier XE (Waters corporation, USA).
Grafit (Erithacus Ltd) was used to calculate the exponential decay and consequently the rate constant (k) from the ratio of peak area of test compound to internal standard at each timepoint. The half life (T1/2) of each test compound was determined using the following equation: T1/2=0.693/k

human liver hepatocytes = test: Intrinsic clearance in human liver hepatocytes; type: in vitro ADME; settings: human cryopreserved hepatocytes, 0.5 μM test compound
Experimental: Vials of human cryopreserved hepatocytes, supplied by Life Technologies, were thawed according to manufacturer's instructions and cells re-suspended in Williams Medium E (WME) containing cell maintenance supplement pack (CM4000, Life Technologies). Hepatocytes were incubated in suspension (0.5 million cells/mL) in 48 well non-collagen coated cell culture plates for 10 min at 37° C., 5% CO2. Upon addition of an equal volume of supplemented WME containing 1 μM test compound, an aliquot of incubation solution was removed to acetonitrile containing internal standard (final concentration 0.5 μM test compound and a cell density of 0.25 million cells/mL). Similarly, aliquots were removed at 3, 6, 9, 15, 30, 45, 60, 90 and 120 min. 100 μL of 80:20 water:acetonitrile was added to all samples and the analysis plate was centrifuged for 10 min at RT prior to injection and analysis of samples by UPLC-MS/MS. The response (area ratio of test compound to internal standard) was plotted against time using an exponential decay model from which rate of disappearance was calculated.

[2] = Solubility in topical formulations; type: physicochemical; settings: thermodynamic from solid
Experimental: The solubilities of solid exemplary compounds were determined in a selection of solvents and solvent combinations (Transcutol, 50:50 Transcutol:water, Labrasol, propylene glycol and 1:5:4 ethanol:propylene glycol:water), after equilibration. An appropriate volume of each combination was added to a manual weighing of solid compound to provide a 20 mg/mL concentration. The resulting suspension was shaken at 1000 rpm for 5 hr at 32° C. before centrifugation at 13,000×g for 10 min to pellet any precipitate. The supernatant solution was removed and inserted into a HPLC vial and quantified by HPLC-UV against a calibration of a known concentration of the compound in DMSO.

BRD4 BD1 = BRD4 BD1 (Homo sapiens (Human), UniProt O60885); test: Bromodomain binding assay (T7 phage display, qPCR), BRD4 BD1; settings: read-out: BRD4 BD1 Kd
Experimental: (§1) T7 phage strains displaying bromodomains were grown in parallel in 24-well blocks in an E. coli host derived from the BL21 strain. E. coli were grown to log-phase and infected with T7 phage from a frozen stock (multiplicity of infection=0.4) and incubated with shaking at 32° C. until lysis (90-150 min). The lysates were centrifuged (5,000×g) and filtered (0.2 μm) to remove cell debris. Streptavidin-coated magnetic beads were treated with biotinylated small molecule or acetylated peptide ligands for 30 min at RT to generate affinity resins for bromodomain assays. The ligated beads were blocked with excess biotin and washed with blocking buffer (SeaBlock (Pierce), 1% BSA, 0.05% Tween 20, 1 mM DTT) to remove unbound ligand and to reduce non-specific phage binding. Binding reactions were assembled by combining bromodomains, ligated affinity beads, and test compounds in 1× binding buffer (16% SeaBlock, 0.32×PBS, 0.02% BSA, 0.04% Tween 20, 0.004% Sodium azide, 7.9 mM DTT). Test compounds were prepared as 1000× stocks in 100% DMSO and subsequently diluted 1:25 in MEG. The compounds were then diluted directly into the assays such that the final concentrations of DMSO and MEG were 0.1% and 2.4%, respectively. All reactions were performed in polypropylene 384-well plates in a final volume of 0.02 ml. The assay plates were incubated at RT with shaking for 1 hr and the affinity beads were washed with wash buffer (1×PBS, 0.05% Tween 20). The beads were then re-suspended in elution buffer (1×PBS, 0.05% Tween 20, 2 μM non-biotinylated affinity ligand) and incubated at RT with shaking for 30 min. The bromodomain concentration in the eluates was measured by quantitative polymerase chain reaction (qPCR).
(§2) An 11-point 3-fold serial dilution of each test compound was prepared in 100% DMSO at 1000× final test concentration. All compounds were distributed by acoustic transfer (non-contact dispensing) in 100% DMSO. The compounds were then diluted directly into the assays such that the final concentration of DMSO was 0.09%. Most dissociation constants were determined using a compound top concentration=10,000 nM. If the initial dissociation constant determined was <0.169 nM (the lowest concentration tested), the measurement was repeated with a serial dilution starting at a lower top concentration.
(§3) The same bromodomain assay procedure as that outlined above was used. Example compounds were screened at 30 times their Kd, and results for primary screen binding interactions are reported as ‘% Ctrl’, where lower numbers indicate stronger hits in the matrix.

[3] = Hydrolytic stability at a range of pHs; type: physicochemical; settings: 60° C., 6 days
Experimental: To test the hydrolytic stability a 1 mg/mL solution of test materials was made in DMSO (0.1% solution). To 300 μL of each solution in a HPLC vials was added 1200 μL of one of the following: pH 4.0 buffer—left at 60° C. for 5 days. Samples taken t=0 hr and 6 days pH 5.5 buffer—left at 60° C. for 5 days. Samples taken t=0 hr and 6 days pH 7.4 buffer—left at 60° C. for 5 days. Samples taken t=0 hr and 6 days A 100 μL aliquot was taken at each time point and added to 900 μL of DMSO. This sample was used to determine % decomposition.
% decomposition was measured with a Bruker MicrOTOF II focus ESI Mass Spectrometer connected in parallel to Dionex Ultimate 3000 RSLC system with diode array detector.

[4] = tested on: CD4+ T-cells stimulated by CD2, CD3 and CD28 antibodies; test: Cellular activity IL-4: reduction of IL-4 levels in activated CD4+ T-cells; type: cell-based, human; settings: Homo sapiens, T-cell
Experimental: • 1. CD4^+ T-cells are isolated from cryopreserved human peripheral blood mononuclear cells (PBMCs) using EasySep™ Kit (Cat. No. 17952, Stemcell Technologies). • 2. CD2, CD3 and CD28 antibodies coated beads from T cell Activation/Expansion Kit (Cat. No. 130-091-441, Miltenyi Biotec) are added to the CD4^+ T-cells at a bead-to-cell ratio of 1:2. • 3. CD4^+ T-cells along with the beads are seeded at 2×10^5 cells/well in a round bottom 96-well plate and treated with different compounds and controls in a total volume of 200 μl. • 4. The cells are cultured for 48 hrs at 37° C., 5% CO2. • 5. Supernatant is collected and IL-4 is analysed by ELISA.

BRD4 BD2 = BRD4 BD2 (Homo sapiens (Human), UniProt O60885); test: Bromodomain binding assay (T7 phage display, qPCR), BRD4 BD2; settings: read-out: BRD4 BD2 Kd
Experimental: as §1, §2, §3

[5] = Labrasol, oil or lipid, 5 hr at 32° C., read-out: Solubility in LB (Labrasol)
[6] = Transcutol, organic solvent or mixture, 5 hr at 32° C., read-out: Solubility in TC (Transcutol)
[7] = Transcutol:water 1:1, aqueous with cosolvent or surfactant or cyclodextrin, 5 hr at 32° C., read-out: Solubility in TC:water 1:1
[8] = propylene glycol, organic solvent or mixture, 5 hr at 32° C., read-out: Solubility in PG (Propylene glycol)
[9] = 48 hrs, ELISA, read-out: EC50 reduction of IL-4 levels
[10] = read-out: cellular EC50 values, reduction of IL-4 levels

SMILES | half-life at 0.5 μM [1] [min] | Intrinsic clearance, % Liver Blood Flow (human liver hepatocytes) [% Liver Blood Flow] | solubility at 5 hr [2, 5] [µg/mL] | solubility at 5 hr [2, 6] [µg/mL] | solubility at 5 hr [2, 7] [µg/mL] | solubility at 5 hr [2, 8] [µg/mL] | Kd (BRD4 BD1) [nM] | pH 4.0 % decomposition ([3]; pH 4.0 buffer) [%] | pH 5.5 % decomposition ([3]; pH 5.5 buffer) [%] | pH 7.4 % decomposition ([3]; pH 7.4 buffer) [%] | T1/2 (min) in human skin S9 fractions [1] [min] | solubility at 5 hr ([2]; ethanol:propylene glycol:water 1:5:4, aqueous with cosolvent or surfactant or cyclodextrin, 5 hr at 32° C., read-out: Solubility in EtOH:PG:water 1:5:4) [µg/mL] | solubility at 5 hr ([2]; topical formulation solvents and solvent combinations, 32 °C, organic solvent or mixture, read-out: solubilities in the formulations described) [µg/mL] | EC50 [4, 9] [nM] | EC50 [4, 10] [nM] | Kd (BRD4 BD2) [nM]
Cn1cc(-c2ccc(O)cc2Oc2ccccc2)c2cc[nH]c2c1=O [Example 2, 4-(4-hydroxy-2-phenoxyphenyl)-6-methyl-1,6-dihydro-7H-pyrrolo[2,3-c]pyridin-7-one] | > 120 | 88 | 1000 to 10000 | > 10000 | 1000 to 10000 | 1000 to 10000 | 10 to 100 | 15 | 30 | 0 |  |  |  |  |  | 
Cn1cc(-c2cc(O)ccc2Oc2ccccc2)c2cc[nH]c2c1=O [Example 6, 4-(5-hydroxy-2-phenoxyphenyl)-6-methyl-1,6-dihydro-7H-pyrrolo[2,3-c]pyridin-7-one] | > 120 | 94 | > 10000 | > 10000 | 1000 to 10000 | > 10000 | ≤ 10 |  |  |  | >120 | 1000 to 10000 | > 1000 | 10 to 100 | < 100 | 
Cc1cc(F)cc(C)c1Oc1c(-c2cn(C)c(=O)c3[nH]c(C(=O)NC(C)(C)C)cc23)ccn(C)c1=O [Example 42, N-(tert-butyl)-4-(3-(4-fluoro-2,6-dimethylphenoxy)-1-methyl-2-oxo-1,2-dihydropyridin-4-yl)-6-methyl-7-oxo-6,7-dihydro-1H-pyrrolo[2,3-c]pyridine-2-carboxamide] |  | <34 |  |  |  |  | > 1000 |  |  |  |  |  |  | 100 to 1000 |  | ≤ 10

The next lines start with the values.

half-life at 0.5 μM [1] [min] | Intrinsic clearance, % Liver Blood Flow (human liver hepatocytes) [% Liver Blood Flow] | solubility at 5 hr [2, 5] [µg/mL] | solubility at 5 hr [2, 6] [µg/mL] | solubility at 5 hr [2, 7] [µg/mL] | solubility at 5 hr [2, 8] [µg/mL] | Kd (BRD4 BD1) [nM] | pH 4.0 % decomposition ([3]; pH 4.0 buffer) [%] | pH 5.5 % decomposition ([3]; pH 5.5 buffer) [%] | pH 7.4 % decomposition ([3]; pH 7.4 buffer) [%] | T1/2 (min) in human skin S9 fractions [1] [min] | solubility at 5 hr ([2]; ethanol:propylene glycol:water 1:5:4, aqueous with cosolvent or surfactant or cyclodextrin, 5 hr at 32° C., read-out: Solubility in EtOH:PG:water 1:5:4) [µg/mL] | solubility at 5 hr ([2]; topical formulation solvents and solvent combinations, 32 °C, organic solvent or mixture, read-out: solubilities in the formulations described) [µg/mL] | EC50 [4, 9] [nM] | EC50 [4, 10] [nM] | Kd (BRD4 BD2) [nM] | SMILES
 | 38 |  |  |  |  | > 1000 |  |  |  |  |  |  | 100 to 1000 |  | 10 to 100 | Cc1cc(F)cc(C)c1Oc1c(-c2cn(C)c(=O)c3[nH]c(C(=O)NC(C)(C)C(F)(F)F)cc23)ccn(C)c1=O [Example 43]
 | 34 |  |  |  |  | > 1000 |  |  |  |  |  |  | 100 to 1000 |  | 10 to 100 | Cc1cc(F)cc(C)c1Oc1c(-c2cn(C)c(=O)c3[nH]c(C(=O)NC4(C)CC4(F)F)cc23)ccn(C)c1=O (stereo not drawn) [Example 44, N-(2,2-difluoro-1-methylcyclopropyl)-4-(3-(4-fluoro-2,6-dimethylphenoxy)-1-methyl-2-oxo-1,2-dihydropyridin-4-yl)-6-methyl-7-oxo-6,7-dihydro-1H-pyrrolo[2,3-c]pyridine-2-carboxamide]
 | 89 |  |  |  |  | 100 to 1000 |  |  |  |  |  |  | 10 to 100 | < 100 | 10 to 100 | CCCOc1ncsc1-c1cn(C)c(=O)c2[nH]ccc12 [Example 46, 6-methyl-4-(4-propoxythiazol-5-yl)-1,6-dihydro-7H-pyrrolo[2,3-c]pyridin-7-one]
